Experimental data published in ChEMBL document CHEMBL4507276 (2021).

Columns and labels:
[1] = target: Tyrosine-protein kinase ABL2 (Homo sapiens) (UniProt P42684); details: Compound concentration 1000.0 nM
[2] = target: Activin receptor type-2B (Homo sapiens) (UniProt Q13705); details: Compound concentration 1000.0 nM
[3] = system: Epidermal growth factor receptor (Homo sapiens), P00533 [UNDEFINED MUTATION]; details: Compound concentration 1000.0 nM
[4] = target: Mitogen-activated protein kinase 6 (Homo sapiens) (UniProt Q16659); details: Compound concentration 1000.0 nM
[5] = system: Receptor-type tyrosine-protein kinase FLT3 (Homo sapiens), P36888 [UNDEFINED MUTATION]; details: Compound concentration 1000.0 nM
[6] = target: Mitogen-activated protein kinase kinase kinase 15 (Homo sapiens) (UniProt Q6ZN16); details: Compound concentration 1000.0 nM
[7] = target: Dual specificity mitogen-activated protein kinase kinase 1 (Homo sapiens) (UniProt Q02750); details: Compound concentration 1000.0 nM
[8] = target: Mitogen-activated protein kinase kinase kinase 10 (Homo sapiens) (UniProt Q02779); details: Compound concentration 1000.0 nM
[9] = target: T1, Serine/threonine-protein kinase 4 (Homo sapiens) (UniProt Q13043); details: Compound concentration 1000.0 nM
T1 sequence (whole entry): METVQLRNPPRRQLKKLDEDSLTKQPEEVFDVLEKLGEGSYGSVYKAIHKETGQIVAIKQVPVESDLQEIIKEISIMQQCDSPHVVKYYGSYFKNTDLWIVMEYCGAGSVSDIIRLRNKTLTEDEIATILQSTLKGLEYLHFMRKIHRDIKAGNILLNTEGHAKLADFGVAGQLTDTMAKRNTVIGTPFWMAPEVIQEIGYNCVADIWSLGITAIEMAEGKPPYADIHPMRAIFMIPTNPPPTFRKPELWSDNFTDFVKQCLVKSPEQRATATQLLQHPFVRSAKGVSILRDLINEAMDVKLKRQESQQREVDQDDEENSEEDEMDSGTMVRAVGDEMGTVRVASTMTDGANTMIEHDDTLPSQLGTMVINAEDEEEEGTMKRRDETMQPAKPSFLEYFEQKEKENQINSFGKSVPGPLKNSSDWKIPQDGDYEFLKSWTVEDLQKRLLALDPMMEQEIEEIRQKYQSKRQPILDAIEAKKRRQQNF

[10] = target: Serine/threonine-protein kinase 38 (Homo sapiens) (UniProt Q15208); details: Compound concentration 1000.0 nM
[11] = target: T2, Serine/threonine-protein kinase NLK (Homo sapiens) (UniProt Q9UBE8); details: Compound concentration 1000.0 nM
T2 sequence (whole entry): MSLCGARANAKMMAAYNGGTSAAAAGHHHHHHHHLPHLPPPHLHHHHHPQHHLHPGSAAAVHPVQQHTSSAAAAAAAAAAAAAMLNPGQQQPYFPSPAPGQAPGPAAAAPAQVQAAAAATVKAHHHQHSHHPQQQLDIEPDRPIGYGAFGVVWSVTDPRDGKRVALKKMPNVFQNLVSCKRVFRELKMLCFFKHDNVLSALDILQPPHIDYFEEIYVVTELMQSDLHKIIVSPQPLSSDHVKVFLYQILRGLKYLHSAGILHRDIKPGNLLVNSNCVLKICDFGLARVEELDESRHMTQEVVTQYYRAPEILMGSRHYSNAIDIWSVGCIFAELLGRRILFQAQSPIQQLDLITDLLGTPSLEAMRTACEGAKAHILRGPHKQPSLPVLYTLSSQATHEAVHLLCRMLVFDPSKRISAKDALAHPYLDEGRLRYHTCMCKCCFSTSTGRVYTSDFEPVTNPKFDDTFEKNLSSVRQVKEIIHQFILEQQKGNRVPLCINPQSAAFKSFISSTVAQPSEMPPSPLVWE

[12] = target: Phosphorylase b kinase regulatory subunit alpha, liver isoform (Homo sapiens) (UniProt P46019); details: Compound concentration 1000.0 nM
[13] = target: Ribosomal protein S6 kinase alpha-2 (Homo sapiens) (UniProt Q15349); details: Compound concentration 1000.0 nM
[14] = target: T3, Serine/threonine-protein kinase Sgk3 (Homo sapiens) (UniProt Q96BR1); details: Compound concentration 1000.0 nM
T3 sequence (whole entry): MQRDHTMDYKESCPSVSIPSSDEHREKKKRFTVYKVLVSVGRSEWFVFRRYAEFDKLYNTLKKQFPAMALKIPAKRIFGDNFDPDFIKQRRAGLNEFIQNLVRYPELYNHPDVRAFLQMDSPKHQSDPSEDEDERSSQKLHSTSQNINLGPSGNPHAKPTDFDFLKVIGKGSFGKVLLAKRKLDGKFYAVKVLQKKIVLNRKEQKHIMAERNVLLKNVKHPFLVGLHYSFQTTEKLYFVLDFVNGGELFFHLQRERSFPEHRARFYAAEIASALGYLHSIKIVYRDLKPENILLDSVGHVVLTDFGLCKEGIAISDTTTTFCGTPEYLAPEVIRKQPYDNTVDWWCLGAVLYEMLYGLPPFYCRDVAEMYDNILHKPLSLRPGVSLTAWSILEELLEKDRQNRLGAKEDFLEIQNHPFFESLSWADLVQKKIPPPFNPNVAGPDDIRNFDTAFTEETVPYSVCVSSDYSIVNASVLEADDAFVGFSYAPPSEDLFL

[15] = target: Serine/threonine-protein kinase 16 (Homo sapiens) (UniProt O75716); details: Compound concentration 1000.0 nM
[16] = target: 5-hydroxytryptamine receptor 5A (Homo sapiens) (UniProt P47898); details: Compound concentration 10.0 uM
[17] = target: D(1A) dopamine receptor (Homo sapiens) (UniProt P21728); details: Compound concentration 10.0 uM
[18] = target: Delta-type opioid receptor (Homo sapiens) (UniProt P41143); details: Compound concentration 10.0 uM
[19] = target: Sigma intracellular receptor 2 (Homo sapiens) (UniProt Q5BJF2); details: Compound concentration 10.0 uM

Serine/threonine-protein kinase 16 (Homo sapiens), sequence (O75716 whole entry): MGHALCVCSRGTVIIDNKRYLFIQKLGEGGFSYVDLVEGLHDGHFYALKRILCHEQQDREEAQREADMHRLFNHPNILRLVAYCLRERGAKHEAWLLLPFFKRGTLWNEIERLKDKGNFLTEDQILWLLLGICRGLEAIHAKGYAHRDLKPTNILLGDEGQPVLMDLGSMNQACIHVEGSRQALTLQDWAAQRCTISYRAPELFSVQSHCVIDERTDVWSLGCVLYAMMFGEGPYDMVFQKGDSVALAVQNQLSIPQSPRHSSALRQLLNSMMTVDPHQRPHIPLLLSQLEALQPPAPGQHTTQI
Receptor-type tyrosine-protein kinase FLT3 (Homo sapiens), P36888 [UNDEFINED MUTATION], sequence (P36888 whole entry, looked up, change not shown): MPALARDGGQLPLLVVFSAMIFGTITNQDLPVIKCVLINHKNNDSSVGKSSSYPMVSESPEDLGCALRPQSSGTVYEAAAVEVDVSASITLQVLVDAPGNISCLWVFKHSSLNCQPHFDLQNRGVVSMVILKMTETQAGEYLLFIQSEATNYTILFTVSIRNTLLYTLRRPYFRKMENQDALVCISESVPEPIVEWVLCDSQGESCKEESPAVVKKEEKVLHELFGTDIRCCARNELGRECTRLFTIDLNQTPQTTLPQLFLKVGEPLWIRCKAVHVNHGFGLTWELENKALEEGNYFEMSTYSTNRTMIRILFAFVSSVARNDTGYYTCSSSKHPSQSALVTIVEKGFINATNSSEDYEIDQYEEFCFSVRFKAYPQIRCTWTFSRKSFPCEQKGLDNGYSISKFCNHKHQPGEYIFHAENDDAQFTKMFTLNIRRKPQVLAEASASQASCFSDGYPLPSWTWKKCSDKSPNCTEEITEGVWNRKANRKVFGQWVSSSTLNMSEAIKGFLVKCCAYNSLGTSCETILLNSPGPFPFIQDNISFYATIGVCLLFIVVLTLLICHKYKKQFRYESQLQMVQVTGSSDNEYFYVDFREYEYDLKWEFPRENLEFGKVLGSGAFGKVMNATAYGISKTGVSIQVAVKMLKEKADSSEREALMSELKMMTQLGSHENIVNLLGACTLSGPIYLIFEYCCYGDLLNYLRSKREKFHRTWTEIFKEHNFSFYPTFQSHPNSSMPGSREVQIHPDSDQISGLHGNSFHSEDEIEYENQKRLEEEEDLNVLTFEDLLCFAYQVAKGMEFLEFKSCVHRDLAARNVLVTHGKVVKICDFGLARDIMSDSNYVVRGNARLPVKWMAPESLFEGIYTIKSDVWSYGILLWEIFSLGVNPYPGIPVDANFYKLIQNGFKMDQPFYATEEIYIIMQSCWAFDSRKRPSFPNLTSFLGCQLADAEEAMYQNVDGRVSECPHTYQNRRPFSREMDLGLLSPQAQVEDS
Phosphorylase b kinase regulatory subunit alpha, liver isoform (Homo sapiens), sequence (P46019 whole entry, canonical isoform): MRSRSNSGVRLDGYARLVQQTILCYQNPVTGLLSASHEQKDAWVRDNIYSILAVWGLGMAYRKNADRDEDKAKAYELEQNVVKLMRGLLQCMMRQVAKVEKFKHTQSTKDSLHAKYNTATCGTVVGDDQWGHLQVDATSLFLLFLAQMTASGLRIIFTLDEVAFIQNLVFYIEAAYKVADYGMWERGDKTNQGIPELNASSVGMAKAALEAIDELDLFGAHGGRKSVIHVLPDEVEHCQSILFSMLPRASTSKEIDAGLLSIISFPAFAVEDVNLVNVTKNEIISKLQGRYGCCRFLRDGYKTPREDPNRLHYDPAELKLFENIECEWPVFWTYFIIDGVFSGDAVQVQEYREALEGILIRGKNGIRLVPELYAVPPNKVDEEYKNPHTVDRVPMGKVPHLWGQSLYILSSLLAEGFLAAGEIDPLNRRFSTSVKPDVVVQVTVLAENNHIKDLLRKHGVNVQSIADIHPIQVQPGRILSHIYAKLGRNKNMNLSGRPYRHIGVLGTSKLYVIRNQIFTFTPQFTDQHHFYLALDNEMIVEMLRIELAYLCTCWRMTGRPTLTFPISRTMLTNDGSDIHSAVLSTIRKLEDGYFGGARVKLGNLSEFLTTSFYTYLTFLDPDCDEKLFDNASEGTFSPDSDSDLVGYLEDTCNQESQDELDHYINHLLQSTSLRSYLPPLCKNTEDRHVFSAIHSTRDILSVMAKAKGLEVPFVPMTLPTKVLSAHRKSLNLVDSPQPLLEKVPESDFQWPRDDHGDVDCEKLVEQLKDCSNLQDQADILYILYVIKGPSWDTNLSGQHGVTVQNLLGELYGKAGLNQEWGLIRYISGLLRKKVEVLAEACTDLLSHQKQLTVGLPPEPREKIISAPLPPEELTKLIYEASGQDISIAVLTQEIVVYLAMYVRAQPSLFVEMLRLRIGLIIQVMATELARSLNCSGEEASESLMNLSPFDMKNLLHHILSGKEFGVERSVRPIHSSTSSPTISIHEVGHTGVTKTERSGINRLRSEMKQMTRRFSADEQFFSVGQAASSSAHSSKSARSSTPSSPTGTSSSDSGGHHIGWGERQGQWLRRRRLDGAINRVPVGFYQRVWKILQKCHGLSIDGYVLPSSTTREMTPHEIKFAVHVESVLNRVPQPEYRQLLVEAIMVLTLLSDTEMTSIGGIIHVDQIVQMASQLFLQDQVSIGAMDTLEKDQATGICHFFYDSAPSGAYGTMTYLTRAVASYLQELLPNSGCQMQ
Epidermal growth factor receptor (Homo sapiens), P00533 [UNDEFINED MUTATION], sequence (P00533 whole entry, looked up, change not shown): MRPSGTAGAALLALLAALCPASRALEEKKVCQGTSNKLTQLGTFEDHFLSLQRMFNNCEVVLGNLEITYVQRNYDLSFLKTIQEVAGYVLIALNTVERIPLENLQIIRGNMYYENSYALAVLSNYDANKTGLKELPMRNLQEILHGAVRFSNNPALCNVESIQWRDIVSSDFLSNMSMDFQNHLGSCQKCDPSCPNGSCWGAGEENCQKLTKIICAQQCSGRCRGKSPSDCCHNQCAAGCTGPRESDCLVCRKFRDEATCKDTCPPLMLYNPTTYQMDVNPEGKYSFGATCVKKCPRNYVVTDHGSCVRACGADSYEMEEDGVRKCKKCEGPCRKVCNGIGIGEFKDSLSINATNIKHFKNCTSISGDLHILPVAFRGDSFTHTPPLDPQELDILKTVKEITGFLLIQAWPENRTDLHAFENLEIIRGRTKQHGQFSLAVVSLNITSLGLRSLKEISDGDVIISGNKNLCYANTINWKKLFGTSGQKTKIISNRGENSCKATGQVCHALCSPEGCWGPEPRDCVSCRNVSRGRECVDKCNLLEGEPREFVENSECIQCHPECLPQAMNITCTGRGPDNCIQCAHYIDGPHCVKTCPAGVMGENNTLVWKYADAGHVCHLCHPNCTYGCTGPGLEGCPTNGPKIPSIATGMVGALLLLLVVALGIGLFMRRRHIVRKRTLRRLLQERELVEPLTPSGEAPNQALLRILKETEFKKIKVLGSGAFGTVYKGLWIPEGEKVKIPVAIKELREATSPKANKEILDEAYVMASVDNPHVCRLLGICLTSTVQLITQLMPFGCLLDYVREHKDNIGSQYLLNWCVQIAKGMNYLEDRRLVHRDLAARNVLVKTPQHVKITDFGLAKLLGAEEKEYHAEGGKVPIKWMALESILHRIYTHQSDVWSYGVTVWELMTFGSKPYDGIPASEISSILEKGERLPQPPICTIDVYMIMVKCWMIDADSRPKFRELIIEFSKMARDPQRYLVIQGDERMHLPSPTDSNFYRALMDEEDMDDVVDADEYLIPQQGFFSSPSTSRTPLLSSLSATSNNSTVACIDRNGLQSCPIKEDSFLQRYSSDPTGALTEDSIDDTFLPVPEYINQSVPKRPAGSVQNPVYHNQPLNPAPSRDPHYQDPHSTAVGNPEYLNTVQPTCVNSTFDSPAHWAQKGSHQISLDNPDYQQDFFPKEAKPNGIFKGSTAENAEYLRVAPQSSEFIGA
Mitogen-activated protein kinase 6 (Homo sapiens), sequence (Q16659 whole entry): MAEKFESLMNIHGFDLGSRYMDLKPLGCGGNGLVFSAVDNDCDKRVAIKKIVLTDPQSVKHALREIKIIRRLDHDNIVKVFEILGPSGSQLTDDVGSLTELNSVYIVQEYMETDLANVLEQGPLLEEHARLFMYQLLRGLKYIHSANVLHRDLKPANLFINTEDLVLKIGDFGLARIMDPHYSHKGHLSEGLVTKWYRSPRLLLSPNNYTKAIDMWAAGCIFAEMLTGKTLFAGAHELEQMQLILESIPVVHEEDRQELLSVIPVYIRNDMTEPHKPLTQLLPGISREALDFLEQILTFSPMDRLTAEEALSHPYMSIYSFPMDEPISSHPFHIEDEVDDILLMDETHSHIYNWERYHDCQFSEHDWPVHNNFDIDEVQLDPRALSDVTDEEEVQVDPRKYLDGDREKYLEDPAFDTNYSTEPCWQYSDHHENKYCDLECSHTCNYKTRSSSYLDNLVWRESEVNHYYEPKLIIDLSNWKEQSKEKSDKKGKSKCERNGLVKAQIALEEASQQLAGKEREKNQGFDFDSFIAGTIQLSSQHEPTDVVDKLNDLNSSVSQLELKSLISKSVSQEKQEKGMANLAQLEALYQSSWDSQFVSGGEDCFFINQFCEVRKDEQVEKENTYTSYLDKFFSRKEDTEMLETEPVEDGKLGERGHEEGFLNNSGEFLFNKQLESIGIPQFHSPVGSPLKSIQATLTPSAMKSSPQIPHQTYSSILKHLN
Serine/threonine-protein kinase 38 (Homo sapiens), sequence (Q15208 2-465 limits assumed): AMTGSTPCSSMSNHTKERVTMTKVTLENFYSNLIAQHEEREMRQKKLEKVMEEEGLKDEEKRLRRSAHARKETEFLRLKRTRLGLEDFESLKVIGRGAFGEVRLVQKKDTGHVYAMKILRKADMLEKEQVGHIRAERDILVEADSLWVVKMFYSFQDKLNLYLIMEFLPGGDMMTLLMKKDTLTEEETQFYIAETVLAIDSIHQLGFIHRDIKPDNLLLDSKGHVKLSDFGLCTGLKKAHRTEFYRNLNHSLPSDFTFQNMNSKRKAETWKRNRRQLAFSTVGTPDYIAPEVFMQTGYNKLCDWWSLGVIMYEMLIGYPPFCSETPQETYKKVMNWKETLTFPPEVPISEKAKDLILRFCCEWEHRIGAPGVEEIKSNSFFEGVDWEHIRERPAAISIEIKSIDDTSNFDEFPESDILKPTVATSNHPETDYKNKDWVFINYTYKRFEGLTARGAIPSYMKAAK

CN(C)C(=O)Cn1cc(-c2nc(C3(c4ccc(-c5cnc(N)nc5)cc4)CC3)no2)cn1 [BI 0153]
inactive: residual activity [1] 84% | residual activity [2] 96% | residual activity [3] 100% | residual activity [4] 91% | residual activity [5] 89% | residual activity [6] 100% | residual activity [7] 82% | residual activity [8] 62% | residual activity [9] 90% | residual activity [10] 84% | residual activity [11] 94% | residual activity [12] 91% | residual activity [13] 100% | residual activity [14] 75% | residual activity [15] 100% | inhibition [16] 0.23% | inhibition [17] -6.69% | inhibition [18] -5.53% | inhibition [19] 25%

CN(C)C(=O)Cn1cc(-c2nc([C@@](C)(c3ccc(-c4cnc(N)nc4)cc3)C3CC3)no2)cn1 [BI 665915]
inactive: residual activity [1] 100% | residual activity [2] 81% | residual activity [3] 100% | residual activity [4] 91% | residual activity [5] 62% | residual activity [6] 99% | residual activity [7] 89% | residual activity [8] 83% | residual activity [9] 90% | residual activity [10] 80% | residual activity [11] 95% | residual activity [12] 80% | residual activity [13] 100% | residual activity [14] 76% | residual activity [15] 100% | inhibition [16] -4.97% | inhibition [17] 4.55% | inhibition [18] -7.13% | inhibition [19] 10.1%
